13 compounds from ChEMBL document CHEMBL1201862, “PubChem BioAssay data set” (2004) can be followed below.

Molecules are shown by their SMILES. Values joined by “and” are separate entries in the source; they are usually repeats but may differ in a detail not shown here. Identical values can stand only once. Active and inactive are the calls of the source.

The nature of assay [1]: inhibitors of clade B AD8 Env fusion, dose response, cell-based, cherry-pick (AID 652062).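 Also: luciferase signal from cell-cell fusion driven by HIV-1 clade B AD8 Env; potency is for inhibitors of fusion seen as a drop in luminescence.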 Type of assay: functional.
For assay [2], the target named is T1, Replicative DNA helicase DnaB (Mycobacterium tuberculosis, UniProt P9WMR3).
T1 sequence (P9WMR3 whole entry): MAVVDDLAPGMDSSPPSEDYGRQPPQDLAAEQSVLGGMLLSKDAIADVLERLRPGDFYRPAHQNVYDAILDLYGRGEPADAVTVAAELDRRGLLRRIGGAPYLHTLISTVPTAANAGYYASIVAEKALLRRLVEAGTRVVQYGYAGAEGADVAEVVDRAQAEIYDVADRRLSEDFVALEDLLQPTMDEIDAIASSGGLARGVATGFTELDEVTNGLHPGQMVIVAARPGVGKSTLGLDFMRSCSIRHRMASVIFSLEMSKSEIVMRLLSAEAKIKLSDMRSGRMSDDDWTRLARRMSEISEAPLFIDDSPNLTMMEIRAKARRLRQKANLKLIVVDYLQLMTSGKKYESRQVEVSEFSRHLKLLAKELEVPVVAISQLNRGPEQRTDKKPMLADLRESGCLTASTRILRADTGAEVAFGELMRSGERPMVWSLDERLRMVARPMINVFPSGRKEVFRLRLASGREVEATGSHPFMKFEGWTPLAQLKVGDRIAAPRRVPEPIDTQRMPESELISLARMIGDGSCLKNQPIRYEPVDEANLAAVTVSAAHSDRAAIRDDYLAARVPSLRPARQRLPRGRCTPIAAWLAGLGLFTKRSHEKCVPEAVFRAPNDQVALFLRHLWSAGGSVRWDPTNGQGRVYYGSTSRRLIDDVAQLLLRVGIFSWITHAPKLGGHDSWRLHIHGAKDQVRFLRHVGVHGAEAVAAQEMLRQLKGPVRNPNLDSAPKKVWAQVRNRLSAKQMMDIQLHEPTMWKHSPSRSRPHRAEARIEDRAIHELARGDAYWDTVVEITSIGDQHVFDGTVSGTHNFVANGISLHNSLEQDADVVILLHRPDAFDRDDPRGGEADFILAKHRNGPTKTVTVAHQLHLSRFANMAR
The assay can be described thus: DnaB intein splicing inhibitors, dose response, biochemical, cell-free fluorescence (AID 449749). It counts as functional.

The nature of assay [3]: Luminescence Cell-Based Dose Retest to Confirm Inhibitors of Cancer Stem Cells. [Related pubchem assays (depositor defined):AID2717, AID2721]. Type of assay: functional. The following applies: Homo sapiens.
Assay [4] has as its system Vero. Nature of the assay: cells. Type of assay: functional, cell-based. The following applies: Chlorocebus sabaeus.
Assay [5] has as its system Vero. Nature of the assay: cells. Type of assay: functional. To be noted: Chlorocebus sabaeus.
The target of a further assay is T2, Protein RecA (Mycobacterium tuberculosis, UniProt P9WHJ3).
T2 sequence (P9WHJ3 whole entry): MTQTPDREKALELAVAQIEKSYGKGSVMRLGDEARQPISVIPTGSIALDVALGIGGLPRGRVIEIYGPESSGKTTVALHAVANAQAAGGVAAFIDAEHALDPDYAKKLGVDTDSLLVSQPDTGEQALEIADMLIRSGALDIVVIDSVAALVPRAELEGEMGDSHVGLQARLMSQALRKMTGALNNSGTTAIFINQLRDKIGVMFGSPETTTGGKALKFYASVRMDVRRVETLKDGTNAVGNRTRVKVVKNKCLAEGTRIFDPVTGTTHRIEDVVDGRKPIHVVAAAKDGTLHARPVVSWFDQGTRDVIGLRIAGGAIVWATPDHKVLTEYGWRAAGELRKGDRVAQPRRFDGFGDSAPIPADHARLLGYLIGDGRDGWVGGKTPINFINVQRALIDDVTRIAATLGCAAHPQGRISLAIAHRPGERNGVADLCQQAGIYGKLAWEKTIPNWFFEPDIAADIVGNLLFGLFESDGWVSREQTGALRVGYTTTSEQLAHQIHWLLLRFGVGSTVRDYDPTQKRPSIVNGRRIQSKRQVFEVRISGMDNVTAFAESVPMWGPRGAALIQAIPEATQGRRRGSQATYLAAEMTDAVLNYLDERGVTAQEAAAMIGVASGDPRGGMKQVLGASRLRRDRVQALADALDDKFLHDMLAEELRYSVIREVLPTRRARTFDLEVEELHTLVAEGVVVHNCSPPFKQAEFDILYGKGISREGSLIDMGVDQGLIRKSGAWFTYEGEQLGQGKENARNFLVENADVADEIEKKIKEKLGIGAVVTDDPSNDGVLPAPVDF
The assay can be described thus: Fluorescence Cell-Free Homogeneous Dose Retest to Identify Inhibitors of RecA-Intein Splicing Activity. [Related pubchem assays (depositor defined):AID2097, AID2223, AID489010, AID492950]. It counts as functional.

The test system of a further assay is HEK293. Nature of the assay: inhibitors of LMP1-driven NF-kB reporter, dose response, cell-based, HEK293, luciferase, cherry-pick (AID 588343). It counts as functional. The following applies: Homo sapiens.
The target of a further assay is Paired box protein Pax-8 (Homo sapiens, UniProt Q06710). Nature of the assay: inhibitors of PAX8-driven TPO luciferase reporter, dose response, RMG-I cells, cherry-pick (AID 687027).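 Also: luciferase reporter driven by Pax8 target thyroperoxidase promoter measured by SteadyGlo luminescence.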 Type of assay: functional, cell-based. On the technique in general: A reporter such as luciferase makes a cellular process visible.
Assay [6] can be described thus: Shn3 3'UTR reporter inhibitors, dose response, cell-based, Clone20 osteoblasts, firefly luciferase, cherry-picked (AID 624132).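 Also: firefly luciferase luminescence from reporter carrying the Shn3 3'UTR in osteoblasts.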 It counts as functional.
Assay [7] can be described thus: control 3'UTR Renilla luciferase suppression, dose response, counter-screen for Shn3 inhibitor project, cell-based, Clone20-Shn3RL, cherry-picked (AID 624133). Type of assay: functional.
The nature of assay [8]: intracellular Trypanosoma cruzi inhibitors in host cells – cell-based, plate reader, cherry-pick samples, set 3, dose response (AID 651818).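 Also: compounds incubated with infected cells for about four days.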 It counts as functional.
A short description of assay [9]: inhibitors of HIV Env-driven cell fusion, dose response, cherry-pick (AID 652057). Type of assay: functional, cell-based.
Assay [10] concerns the target T3, Cytochrome P450 2C9 (Homo sapiens, UniProt P11712).
In another assay the target is Cytochrome P450 2D6 (Homo sapiens, UniProt P10635).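 Also: CYP2D6 member of a cytochrome P450 panel assay.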
A further assay deals with T4, Cytochrome P450 1A2 (Homo sapiens, UniProt P05177).
T4 sequence (P05177 whole entry): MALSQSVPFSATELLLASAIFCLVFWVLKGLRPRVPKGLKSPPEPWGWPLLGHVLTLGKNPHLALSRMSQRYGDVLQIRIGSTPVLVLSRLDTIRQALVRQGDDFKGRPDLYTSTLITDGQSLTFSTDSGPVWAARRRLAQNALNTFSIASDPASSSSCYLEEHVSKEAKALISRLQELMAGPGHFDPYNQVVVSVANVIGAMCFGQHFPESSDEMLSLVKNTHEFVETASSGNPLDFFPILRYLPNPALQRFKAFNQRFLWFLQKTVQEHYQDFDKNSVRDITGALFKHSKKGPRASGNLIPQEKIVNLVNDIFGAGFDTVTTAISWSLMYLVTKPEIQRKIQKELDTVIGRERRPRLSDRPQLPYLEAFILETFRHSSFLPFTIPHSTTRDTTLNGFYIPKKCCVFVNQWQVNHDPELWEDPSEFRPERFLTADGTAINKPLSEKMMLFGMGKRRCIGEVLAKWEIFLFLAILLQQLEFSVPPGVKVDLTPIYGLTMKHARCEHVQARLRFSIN

For assay [11], the target named is T3, Cytochrome P450 2C9. This is another data set of the same source.
For assay [12], the target named is T5, Heat shock factor protein 1 (Mus musculus, UniProt P38532).
T5 sequence (P38532 whole entry): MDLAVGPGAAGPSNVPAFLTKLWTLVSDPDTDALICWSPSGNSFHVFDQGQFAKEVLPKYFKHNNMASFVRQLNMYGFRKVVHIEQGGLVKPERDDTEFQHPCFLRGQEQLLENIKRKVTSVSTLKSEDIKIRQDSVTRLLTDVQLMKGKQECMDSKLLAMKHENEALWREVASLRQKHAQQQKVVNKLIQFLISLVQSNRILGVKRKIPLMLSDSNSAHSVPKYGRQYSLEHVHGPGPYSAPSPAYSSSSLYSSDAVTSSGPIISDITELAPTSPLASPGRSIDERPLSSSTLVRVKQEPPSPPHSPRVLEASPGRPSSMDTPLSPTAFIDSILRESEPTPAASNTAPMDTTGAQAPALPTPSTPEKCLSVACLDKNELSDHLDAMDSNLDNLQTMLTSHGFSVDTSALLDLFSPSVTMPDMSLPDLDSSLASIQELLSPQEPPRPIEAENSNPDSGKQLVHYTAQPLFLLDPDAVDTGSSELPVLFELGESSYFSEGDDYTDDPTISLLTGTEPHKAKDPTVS
The assay can be described thus: HSF1 potentiators in luciferase reporter cells, confirmation, cell-based, NIH3T3, luminescence, dose retest (AID 435004).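 Also: stress induced by proteasome inhibitor MG132 added 30 min after compound; luciferase reporter driven by HSF1 response element in NIH3T3 cells; actives raise luminescence as potentiators of the MG132 stress response.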 Type of assay: functional.

T3 sequence (P11712 whole entry): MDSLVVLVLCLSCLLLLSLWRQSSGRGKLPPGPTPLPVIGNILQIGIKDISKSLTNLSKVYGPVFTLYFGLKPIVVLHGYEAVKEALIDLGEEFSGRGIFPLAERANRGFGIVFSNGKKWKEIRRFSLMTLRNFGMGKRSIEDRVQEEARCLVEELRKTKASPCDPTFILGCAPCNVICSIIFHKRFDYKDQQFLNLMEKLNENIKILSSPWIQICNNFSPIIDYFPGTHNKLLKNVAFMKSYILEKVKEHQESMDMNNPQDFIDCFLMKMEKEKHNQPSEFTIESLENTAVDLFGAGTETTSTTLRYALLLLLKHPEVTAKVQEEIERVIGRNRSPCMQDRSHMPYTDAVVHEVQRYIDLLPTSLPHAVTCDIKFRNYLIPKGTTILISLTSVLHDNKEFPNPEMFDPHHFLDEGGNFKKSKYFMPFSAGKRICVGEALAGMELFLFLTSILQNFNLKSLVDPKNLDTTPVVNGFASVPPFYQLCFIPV
Sequence of Cytochrome P450 2D6 (P10635 whole entry): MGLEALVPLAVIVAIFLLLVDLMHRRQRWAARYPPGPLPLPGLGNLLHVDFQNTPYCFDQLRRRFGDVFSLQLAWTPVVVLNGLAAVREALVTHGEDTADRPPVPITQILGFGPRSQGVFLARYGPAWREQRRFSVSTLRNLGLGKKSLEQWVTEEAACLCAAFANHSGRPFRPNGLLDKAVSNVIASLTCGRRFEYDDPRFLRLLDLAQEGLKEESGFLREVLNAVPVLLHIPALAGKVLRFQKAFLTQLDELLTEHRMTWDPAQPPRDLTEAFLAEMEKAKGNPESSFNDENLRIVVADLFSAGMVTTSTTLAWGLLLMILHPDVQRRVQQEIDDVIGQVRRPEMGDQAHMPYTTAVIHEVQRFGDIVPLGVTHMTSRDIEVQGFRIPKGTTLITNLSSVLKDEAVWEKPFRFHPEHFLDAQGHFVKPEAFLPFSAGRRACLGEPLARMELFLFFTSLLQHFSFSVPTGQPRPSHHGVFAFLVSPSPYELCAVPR
Sequence of Paired box protein Pax-8 (Q06710 whole entry): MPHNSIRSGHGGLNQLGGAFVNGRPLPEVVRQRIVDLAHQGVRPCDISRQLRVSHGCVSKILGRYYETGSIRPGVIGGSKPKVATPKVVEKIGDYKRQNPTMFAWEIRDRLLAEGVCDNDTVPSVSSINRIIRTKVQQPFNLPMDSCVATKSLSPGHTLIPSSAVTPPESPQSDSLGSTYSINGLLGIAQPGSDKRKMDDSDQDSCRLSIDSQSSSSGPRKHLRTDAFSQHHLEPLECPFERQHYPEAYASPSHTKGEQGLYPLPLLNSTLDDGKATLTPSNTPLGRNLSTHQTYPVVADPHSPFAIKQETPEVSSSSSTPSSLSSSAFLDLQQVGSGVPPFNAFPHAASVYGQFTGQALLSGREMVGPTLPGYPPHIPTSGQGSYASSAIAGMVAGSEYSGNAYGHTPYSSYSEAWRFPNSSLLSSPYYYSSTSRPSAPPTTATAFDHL

In general, AC50 refers to the concentration at which the activity in the assay is half-maximal. Consider `Cc1ccc(S(=O)(=O)N(C)c2ccc(C(=O)N3CCN(Cc4ccc5c(c4)OCO5)CC3)cc2)cc1`, for which the AC50 in [1] is 14 µM (active).

For orientation: IC50 means the concentration that gives 50% inhibition. What is called CC50 is the concentration giving 50% cytotoxicity. In general, EC50 refers to the concentration at which the effect is half-maximal. As to `COc1cccc(/C=C/C(=O)c2ccc(NS(=O)(=O)c3ccc(C)cc3)cc2)c1`, the AC50 in assay [2] was 9.15 µM (active); in [3], 2.91 µM (active). Moreover, in the assay on Vero [4], the concentration for half-maximal inhibition (IC50) was 24 µM (active). Also, the CC50 in the assay on Vero [5] was 20.4 µM (active). Besides, the concentration giving a half-maximal response (EC50) on Protein RecA was 15.4 µM (active).

For `COc1ccc(-c2cc3c(=O)n(CC(=O)NCCCN4CCN(Cc5ccccc5)CC4)ncn3n2)cc1`, the AC50 with HEK293 is 2.22 µM (active).

As for `CC(C)(O)/C=C/C(=O)C(C)(O)C1C(O)CC2(C)C3CC=C4C(C=C(O)C(=O)C4(C)C)C3(C)C(=O)CC12C` (configuration not stated), the figures for the concentration at half-maximal activity (AC50) (on Paired box protein Pax-8; in assay [6]; in assay [7]) were < 260 nM (active), 1.83 µM (active) and 4.47 µM (active), respectively. For the same compound, the IC50 in the assay on Vero [4] is > 25 µM (active). In the assay with Vero [5], the CC50 is 0.08 µM (active).

With `Cc1cc(NC(=O)c2ccc3nccnc3c2)ccc1Br`, the half-maximal inhibitory concentration (IC50) in the assay on Vero [4] was > 25 µM (active).

On to `C[C@@H]1CN([C@@H](C)CO)C(=O)c2cccc(NC(=O)CCCCCC(=O)Nc3ccccc3N)c2O[C@H]1CN(C)Cc1ccc2c(c1)OCO2`, for which the half-maximal activity concentration (AC50) in [8] is 2.58 µM (active).

On to `C[C@H](CO)N1C[C@H](C)[C@H](CN(C)Cc2ccc(C(=O)Nc3ccccc3N)cc2)Oc2ccc(NC(=O)Cc3ccccc3)cc2CC1=O`, for which, in [8], the half-maximal activity concentration (AC50) is 2.95 µM (active).

For the compound `C[C@H](CO)N1C[C@H](C)[C@@H](CN(C)Cc2ccncc2)Oc2c(NC(=O)C3CCOCC3)cccc2C1=O`, the AC50 in [8] is 20 µM (inactive).

`Cc1ccc(S(=O)(=O)Nc2cccc3c2O[C@@H](CN(C)S(=O)(=O)c2ccc(Cl)cc2)[C@@H](C)CN([C@H](C)CO)C3=O)cc1`: the AC50 in [8] was 8.14 µM (active).

Take `C[C@@H]1CN([C@@H](C)CO)C(=O)c2cccc(NC(=O)Nc3ccc(C(F)(F)F)cc3)c2O[C@@H]1CN(C)S(=O)(=O)c1ccc(F)cc1`: the concentration at half-maximal activity (AC50) in assay [8] was 4.16 µM (active).

Regarding `O=C(C[C@@H]1CC[C@H]2[C@@H](COC[C@@H](O)CN2C(=O)c2ccc(F)cc2)O1)NC1Cc2ccccc2C1`, the half-maximal activity concentration (AC50) in assay [9] was 1.62 µM (active); in assay [1] it was 3.86 µM (active).

`Cc1[nH]c2ccc(O)cc2c1CCN`: the concentration at half-maximal activity (AC50) at Cytochrome P450 2C9 [10] is 39.8 µM (inconclusive); at Cytochrome P450 2D6, 20 µM (inconclusive) and 39.8 µM (inconclusive); at Cytochrome P450 1A2 it was 31.6 µM (inconclusive) and 20 µM (inconclusive); at Cytochrome P450 2C9 [11] it was 39.8 µM (inconclusive).

As for `COc1ccc(/C=C\c2nc(=O)c3ccccc3o2)cc1`, the IC50 in the assay with Vero [4] was 19.9 µM (active). In addition, the CC50 with Vero [5] is 16.6 µM (active). In addition, the concentration for a half-maximal effect (EC50) in assay [12] is 20.9 µM (active).
